# In ChEMBL document CHEMBL3885861, “Open TG-GATES”:
# Organism: Rattus norvegicus
# Experiment: Open TG-GATES - Regimen: Single
# Assay type: toxicity, organism-based, Sprague-Dawley
# Parameters: regimen Single, gender Male, age 6 weeks
# Details: in vivo, ip, 24 h, route intraperitoneal injection; for Bas / Eos / Hb / Ht / Lym / MCH / MCHC / MCV / Mono / Neu / Plat / RBC / Ret / WBC: tissue Blood; for KIDNEY_L / KIDNEY_R / KIDNEY_TOTAL: tissue Kidney; for LIVER: tissue Liver; for A/G / ALP / ALT / AST / BUN / CRE / Ca / Cl / DBIL / GLC / IP / K / LDH / Na / PL / RALB / TBIL / TC / TG / TP / gamma-GTP: tissue Plasma
smiles,measurement,setting,value
CN(N=O)C(N)=O [N-METHYL-N-NITROSUREA],TERMINAL_BW,"0 mg/kg, dose level Control",240.3 g
same,Bas,"0 mg/kg, dose level Control",0%
same,Eos,"0 mg/kg, dose level Control",0.8%
same,Hb,"0 mg/kg, dose level Control",12.5 g/dL
same,Ht,"0 mg/kg, dose level Control",38.8%
same,Lym,"0 mg/kg, dose level Control",78.8%
same,MCH,"0 mg/kg, dose level Control",19.9 pg
same,MCHC,"0 mg/kg, dose level Control",32.4%
same,MCV,"0 mg/kg, dose level Control",61.6 fL
same,Mono,"0 mg/kg, dose level Control",2.4%
same,Neu,"0 mg/kg, dose level Control",17.6%
same,Plat,"0 mg/kg, dose level Control",125.4 x10_4/uL
same,RBC,"0 mg/kg, dose level Control",629.8 x10_4/ul
same,Ret,"0 mg/kg, dose level Control",8.1%
same,WBC,"0 mg/kg, dose level Control",104.4 x10_2/uL
same,KIDNEY_L,"0 mg/kg, dose level Control",1 g
same,KIDNEY_R,"0 mg/kg, dose level Control",1 g
same,KIDNEY_TOTAL,"0 mg/kg, dose level Control",2 g
same,LIVER,"0 mg/kg, dose level Control",11.1 g
same,A/G,"0 mg/kg, dose level Control",1
same,ALP,"0 mg/kg, dose level Control",1557.2 IU/L
same,ALT,"0 mg/kg, dose level Control",41.2 IU/L
same,AST,"0 mg/kg, dose level Control",72.8 IU/L
same,BUN,"0 mg/kg, dose level Control",17.5 mg/dL
same,CRE,"0 mg/kg, dose level Control",0.2 mg/dL
same,Ca,"0 mg/kg, dose level Control",10.7 mg/dL
same,Cl,"0 mg/kg, dose level Control",102.9 meq/L
same,DBIL,"0 mg/kg, dose level Control",0 mg/dL
same,GLC,"0 mg/kg, dose level Control",198 mg/dL
same,IP,"0 mg/kg, dose level Control",7.1 mg/dL
same,K,"0 mg/kg, dose level Control",4.2 meq/L
same,LDH,"0 mg/kg, dose level Control",141.2 IU/L
same,Na,"0 mg/kg, dose level Control",141.4 meq/L
same,PL,"0 mg/kg, dose level Control",160 mg/dL
same,RALB,"0 mg/kg, dose level Control",2.7 g/dL
same,TBIL,"0 mg/kg, dose level Control",0.004 mg/dL
same,TC,"0 mg/kg, dose level Control",79.4 mg/dL
same,TG,"0 mg/kg, dose level Control",135 mg/dL
same,TP,"0 mg/kg, dose level Control",5.6 g/dL
same,gamma-GTP,"0 mg/kg, dose level Control",1 IU/L
same,TERMINAL_BW,"10 mg/kg, dose level Low",233.4 g
same,Bas,"10 mg/kg, dose level Low",0%
same,Eos,"10 mg/kg, dose level Low",0.2%
same,Hb,"10 mg/kg, dose level Low",13 g/dL
same,Ht,"10 mg/kg, dose level Low",39.7%
same,Lym,"10 mg/kg, dose level Low",90.2%
same,MCH,"10 mg/kg, dose level Low",19.9 pg
same,MCHC,"10 mg/kg, dose level Low",32.8%
same,MCV,"10 mg/kg, dose level Low",60.7 fL
same,Mono,"10 mg/kg, dose level Low",2.6%
same,Neu,"10 mg/kg, dose level Low",5.6%
same,Plat,"10 mg/kg, dose level Low",126.2 x10_4/uL
same,RBC,"10 mg/kg, dose level Low",653 x10_4/ul
same,Ret,"10 mg/kg, dose level Low",5.7%
same,WBC,"10 mg/kg, dose level Low",66.8 x10_2/uL
same,KIDNEY_L,"10 mg/kg, dose level Low",1 g
same,KIDNEY_R,"10 mg/kg, dose level Low",1 g
same,KIDNEY_TOTAL,"10 mg/kg, dose level Low",2.1 g
same,LIVER,"10 mg/kg, dose level Low",10.9 g
same,A/G,"10 mg/kg, dose level Low",1
same,ALP,"10 mg/kg, dose level Low",1481.4 IU/L
same,ALT,"10 mg/kg, dose level Low",33.4 IU/L
same,AST,"10 mg/kg, dose level Low",65.8 IU/L
same,BUN,"10 mg/kg, dose level Low",16.9 mg/dL
same,CRE,"10 mg/kg, dose level Low",0.1 mg/dL
same,Ca,"10 mg/kg, dose level Low",10.6 mg/dL
same,Cl,"10 mg/kg, dose level Low",102.9 meq/L
same,DBIL,"10 mg/kg, dose level Low",0.004 mg/dL
same,GLC,"10 mg/kg, dose level Low",198 mg/dL
same,IP,"10 mg/kg, dose level Low",7.2 mg/dL
same,K,"10 mg/kg, dose level Low",4.1 meq/L
same,LDH,"10 mg/kg, dose level Low",138.4 IU/L
same,Na,"10 mg/kg, dose level Low",141 meq/L
same,PL,"10 mg/kg, dose level Low",167.6 mg/dL
same,RALB,"10 mg/kg, dose level Low",2.9 g/dL
same,TBIL,"10 mg/kg, dose level Low",0.01 mg/dL
same,TC,"10 mg/kg, dose level Low",85.6 mg/dL
same,TG,"10 mg/kg, dose level Low",118.8 mg/dL
same,TP,"10 mg/kg, dose level Low",5.7 g/dL
same,gamma-GTP,"10 mg/kg, dose level Low",0.8 IU/L
same,TERMINAL_BW,"30 mg/kg, dose level Middle",227.7 g
same,Bas,"30 mg/kg, dose level Middle",0%
same,Eos,"30 mg/kg, dose level Middle",0%
same,Hb,"30 mg/kg, dose level Middle",11.8 g/dL
same,Ht,"30 mg/kg, dose level Middle",35.8%
same,Lym,"30 mg/kg, dose level Middle",80.2%
same,MCH,"30 mg/kg, dose level Middle",20.8 pg
same,MCHC,"30 mg/kg, dose level Middle",32.9%
same,MCV,"30 mg/kg, dose level Middle",63.3 fL
same,Mono,"30 mg/kg, dose level Middle",3.2%
same,Neu,"30 mg/kg, dose level Middle",15.4%
same,Plat,"30 mg/kg, dose level Middle",127.5 x10_4/uL
same,RBC,"30 mg/kg, dose level Middle",566 x10_4/ul
same,Ret,"30 mg/kg, dose level Middle",4.9%
same,WBC,"30 mg/kg, dose level Middle",34.5 x10_2/uL
same,KIDNEY_L,"30 mg/kg, dose level Middle",1 g
same,KIDNEY_R,"30 mg/kg, dose level Middle",1 g
same,KIDNEY_TOTAL,"30 mg/kg, dose level Middle",2 g
same,LIVER,"30 mg/kg, dose level Middle",9.9 g
same,A/G,"30 mg/kg, dose level Middle",0.9
same,ALP,"30 mg/kg, dose level Middle",1270.8 IU/L
same,ALT,"30 mg/kg, dose level Middle",35.2 IU/L
same,AST,"30 mg/kg, dose level Middle",70 IU/L
same,BUN,"30 mg/kg, dose level Middle",17.6 mg/dL
same,CRE,"30 mg/kg, dose level Middle",0.1 mg/dL
same,Ca,"30 mg/kg, dose level Middle",10.4 mg/dL
same,Cl,"30 mg/kg, dose level Middle",103.6 meq/L
same,DBIL,"30 mg/kg, dose level Middle",0.01 mg/dL
same,GLC,"30 mg/kg, dose level Middle",196 mg/dL
same,IP,"30 mg/kg, dose level Middle",8.3 mg/dL
same,K,"30 mg/kg, dose level Middle",3.9 meq/L
same,LDH,"30 mg/kg, dose level Middle",151 IU/L
same,Na,"30 mg/kg, dose level Middle",141.8 meq/L
same,PL,"30 mg/kg, dose level Middle",150.4 mg/dL
same,RALB,"30 mg/kg, dose level Middle",2.7 g/dL
same,TBIL,"30 mg/kg, dose level Middle",0.022 mg/dL
same,TC,"30 mg/kg, dose level Middle",82.6 mg/dL
same,TG,"30 mg/kg, dose level Middle",51.7 mg/dL
same,TP,"30 mg/kg, dose level Middle",5.6 g/dL
same,gamma-GTP,"30 mg/kg, dose level Middle",1 IU/L
same,TERMINAL_BW,"100 mg/kg, dose level High",207.9 g
same,Bas,"100 mg/kg, dose level High",0%
same,Eos,"100 mg/kg, dose level High",0%
same,Hb,"100 mg/kg, dose level High",13.8 g/dL
same,Ht,"100 mg/kg, dose level High",41.1%
same,Lym,"100 mg/kg, dose level High",14.2%
same,MCH,"100 mg/kg, dose level High",20.5 pg
same,MCHC,"100 mg/kg, dose level High",33.5%
same,MCV,"100 mg/kg, dose level High",61.1 fL
same,Mono,"100 mg/kg, dose level High",3.2%
same,Neu,"100 mg/kg, dose level High",82%
same,Plat,"100 mg/kg, dose level High",117.5 x10_4/uL
same,RBC,"100 mg/kg, dose level High",673.6 x10_4/ul
same,Ret,"100 mg/kg, dose level High",4.4%
same,WBC,"100 mg/kg, dose level High",13.1 x10_2/uL
same,KIDNEY_L,"100 mg/kg, dose level High",1 g
same,KIDNEY_R,"100 mg/kg, dose level High",1 g
same,KIDNEY_TOTAL,"100 mg/kg, dose level High",1.9 g
same,LIVER,"100 mg/kg, dose level High",9.7 g
same,A/G,"100 mg/kg, dose level High",1
same,ALP,"100 mg/kg, dose level High",1181 IU/L
same,ALT,"100 mg/kg, dose level High",28.6 IU/L
same,AST,"100 mg/kg, dose level High",113 IU/L
same,BUN,"100 mg/kg, dose level High",16.2 mg/dL
same,CRE,"100 mg/kg, dose level High",0.1 mg/dL
same,Ca,"100 mg/kg, dose level High",10.3 mg/dL
same,Cl,"100 mg/kg, dose level High",101.6 meq/L
same,DBIL,"100 mg/kg, dose level High",0.01 mg/dL
same,GLC,"100 mg/kg, dose level High",197.8 mg/dL
same,IP,"100 mg/kg, dose level High",8.2 mg/dL
same,K,"100 mg/kg, dose level High",3.6 meq/L
same,LDH,"100 mg/kg, dose level High",166.4 IU/L
same,Na,"100 mg/kg, dose level High",142.3 meq/L
same,PL,"100 mg/kg, dose level High",150.4 mg/dL
same,RALB,"100 mg/kg, dose level High",2.7 g/dL
same,TBIL,"100 mg/kg, dose level High",0.016 mg/dL
same,TC,"100 mg/kg, dose level High",75.8 mg/dL
same,TG,"100 mg/kg, dose level High",59.3 mg/dL
same,TP,"100 mg/kg, dose level High",5.4 g/dL
same,gamma-GTP,"100 mg/kg, dose level High",0.7 IU/L
